30 compounds from US12558428B2, “Heterobifunctional compounds and their use in treating disease” (Halda Therapeutics OpCo, Inc., priority 2024, dated 2026) can be followed below.

Type in all cases: cell-based
Assay [1] deals with T-Rex 293 cells lacking increased expression of estrogen receptor alpha protein. Briefly: Cellular growth inhibition assay, T-Rex 293 cells, (−) doxycycline. To be noted: T-REx-293, 72 h, Table 7-A; T-Rex 293 cells without doxycycline (lacking increased ERα expression); 72 hours; CellTiter-Glo; read-out: (−) Dox GI50. In outline: (§1)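 ERα overexpression was switched on by 3 ng/mL doxycycline in a stably transfected T-Rex 293 clone, while uninduced cells served as the comparison line. Proliferation over 72 h of compound treatment was assessed by ATP luminescence, and GI50 values came from four-parameter curves.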
For orientation: In ATP-based viability assays light output follows the ATP content of the culture.

Assay [2] concerns MCF7 cells (ATCC #HTB-22). Briefly: Cellular growth inhibition assay, MCF7 cells purchased from ATCC. Conditions: Homo sapiens, MCF7, 144 h, Table 8-A; MCF7 cells purchased from ATCC; six days; CellTiter-Glo; read-out: GI50. The method in brief:
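MCF7 cells in RPMI 1640 with 10% FBS and 0.2 U/ml insulin, seeded at 1,500 cells/well (ATCC) or 225 cells/well (ECACC). Compounds added 24 h later, then 6 days at 37° C. Viability by CellTiter-Glo 2.0 luminescence. GI50 from four-parameter fit.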

The test system of assay [3] is T-Rex 293 cells having increased expression of estrogen receptor alpha protein. Briefly: Cellular growth inhibition assay, T-Rex 293 cells, (+) doxycycline. Conditions: T-REx-293, 72 h, Table 7-A; T-Rex 293 cells with doxycycline (increased ERα expression); 72 hours; CellTiter-Glo; read-out: (+) Dox GI50. The method in brief: as §1

Each structure is given as a SMILES string.

As to `Cc1sc2c(c1C)C(c1ccc(N3CC(CN4CC(COc5ccc([C@@H]6c7ccc(O)cc7CC[C@@H]6c6ccccc6)cc5)C4)C3)cc1)=N[C@@H](C)c1nnc(C)n1-2` [III-101], the GI50 in assay [1] was 50 to 500 nM; in assay [2] it was 50 to 500 nM; in assay [3] it was less than 50 nM.

For `Cc1sc2c(c1C)C(c1ccc(N3CC(CN4CC(COc5ccc([C@H]6c7ccc(O)cc7CC[C@H]6c6ccccc6)cc5)C4)C3)cc1)=N[C@@H](C)c1nnc(C)n1-2` [III-102], the GI50 in assay [1], in assay [2] and in assay [3] was 50 to 500 nM throughout.

With `Cc1sc2c(c1C)C(c1ccc(NCCN3CCN(CCOc4ccc([C@@H]5c6ccc(O)cc6CC[C@@H]5c5ccccc5)cc4)CC3)cc1)=N[C@@H](Cc1ncco1)c1nnc(C)n1-2` [III-103], the GI50 is 50 to 500 nM in assay [1], less than 50 nM in assay [2] and less than 50 nM in assay [3].

On to `Cc1sc2c(c1C)C(c1ccc(NCCN3CCN(CCOc4ccc([C@H]5c6ccc(O)cc6CC[C@H]5c5ccccc5)cc4)CC3)cc1)=N[C@@H](Cc1ncco1)c1nnc(C)n1-2` [III-104], for which the GI50 was 50 to 500 nM in assay [1], less than 50 nM in assay [2] and less than 50 nM in assay [3].

For `Cc1sc2c(c1C)C(c1ccc(N3CCC(N4CCN(CCOc5ccc([C@@H]6c7ccc(O)cc7CC[C@@H]6c6ccccc6)cc5)CC4)CC3)cc1)=N[C@@H](Cc1ncco1)c1nnc(C)n1-2` [III-105], the GI50 was 50 to 500 nM in assay [1], less than 50 nM in assay [2] and less than 50 nM in assay [3].

On to `Cc1sc2c(c1C)C(c1ccc(N3CC(CN4CCC(COc5ccc([C@@H]6c7ccc(O)cc7CC[C@@H]6c6ccccc6)cc5)CC4)C3)cc1)=N[C@@H](C)c1nnc(C)n1-2` [III-106], for which the GI50 in assay [1] was 500 to 2500 nM; in assay [2] it was 50 to 500 nM; in assay [3], less than 50 nM.

For the compound `Cc1sc2c(c1C)C(c1ccc(CN3CC4(CCN(c5ccc([C@@H]6c7ccc(O)cc7CC[C@@H]6c6ccccc6)cc5)CC4)C3)cc1)=N[C@@H](C)c1nnc(C)n1-2` [III-107], the GI50 was in the range of 500 to 2500 nM in assay [1], 50 to 500 nM in assay [2] and 50 to 500 nM in assay [3].

`Cc1sc2c(c1C)C(c1ccc(N3CCC4(CC3)CN(CC3CN(c5ccc([C@@H]6c7ccc(O)cc7CC[C@@H]6c6ccccc6)cc5)C3)C4)cc1)=N[C@@H](C)c1nnc(C)n1-2` [III-108]: the concentration for 50% growth inhibition (GI50) is 50 to 500 nM in assay [1], less than 50 nM in assay [2] and less than 50 nM in assay [3].

Consider `Cc1sc2c(c1C)C(c1ccc(OCCN3CCN(CCOc4ccc([C@@H]5c6ccc(O)cc6CC[C@@H]5c5ccccc5)cc4)CC3)cc1)=N[C@@H](Cc1ncco1)c1nnc(C)n1-2` [III-109], for which the GI50 in assay [1] is 50 to 500 nM; in assay [2], 50 to 500 nM; in assay [3], less than 50 nM.

In the case of `Cc1sc2c(c1C)C(c1ccc(OCCN3CCN(CCOc4ccc([C@H]5c6ccc(O)cc6CC[C@H]5c5ccccc5)cc4)CC3)cc1)=N[C@@H](Cc1ncco1)c1nnc(C)n1-2` [III-110], the GI50 in assay [1], in assay [2] and in assay [3] was less than 50 nM throughout.

For `Cc1sc2c(c1C)C(c1ccc(OCC3CCN(CCOc4ccc([C@@H]5c6ccc(O)cc6CC[C@@H]5c5ccccc5)cc4)CC3)cc1)=N[C@@H](Cc1ncco1)c1nnc(C)n1-2` [III-111], the GI50 in assay [1] is 50 to 500 nM; in assay [2] it was 50 to 500 nM; in assay [3], less than 50 nM.

On to `Cc1sc2c(c1C)C(c1ccc(OCC3CCN(CCOc4ccc([C@H]5c6ccc(O)cc6CC[C@H]5c5ccccc5)cc4)CC3)cc1)=N[C@@H](Cc1ncco1)c1nnc(C)n1-2` [III-112], for which the GI50 in assay [1], in assay [2] and in assay [3] was 50 to 500 nM each time.

Consider `Cc1sc2c(c1C)C(c1ccc(N3CC(N4CCN(CCOc5ccc([C@@H]6c7ccc(O)cc7CC[C@@H]6c6ccccc6)cc5)CC4)C3)cc1)=N[C@@H](Cc1ncco1)c1nnc(C)n1-2` [III-113], for which the GI50 is 50 to 500 nM in assay [1], less than 50 nM in assay [2] and less than 50 nM in assay [3].

Consider `Cc1sc2c(c1C)C(c1ccc(N3CC(N4CCN(CCOc5ccc([C@H]6c7ccc(O)cc7CC[C@H]6c6ccccc6)cc5)CC4)C3)cc1)=N[C@@H](Cc1ncco1)c1nnc(C)n1-2` [III-114], for which the results for the GI50 in assay [1], in assay [2] and in assay [3] were 50 to 500 nM, 50 to 500 nM and less than 50 nM, respectively.

On to `Cc1sc2c(c1C)C(c1ccc(CN3CCC4(CC3)CCN(c3ccc([C@@H]5c6ccc(O)cc6CC[C@@H]5c5ccccc5)cc3)CC4)cc1)=N[C@@H](C)c1nnc(C)n1-2` [III-115], for which the GI50 in assay [1] was 500 to 2500 nM; in assay [2] it was 50 to 500 nM; in assay [3], 50 to 500 nM.

Take `Cc1sc2c(c1C)C(c1ccc(N3CCC4(CC3)CCN(c3ccc([C@@H]5c6ccc(O)cc6CC[C@@H]5c5ccccc5)cc3)CC4)cc1)=N[C@@H](C)c1nnc(C)n1-2` [III-116]: the GI50 was greater than 2500 nM in assay [1], 500 to 2500 nM in assay [2] and greater than 2500 nM in assay [3].

Regarding `Cc1sc2c(c1C)C(c1ccc(N3CCC4(CC3)CCN(c3ccc([C@@H]5c6ccc(O)cc6CC[C@@H]5c5ccccc5)cc3)C4)cc1)=N[C@@H](C)c1nnc(C)n1-2` [III-117], the figures for the GI50 in assay [1], in assay [2] and in assay [3] were 500 to 2500 nM, 50 to 500 nM and 500 to 2500 nM, respectively.

For `Cc1sc2c(c1C)C(c1ccc(N3CCC(O)(CN4CCN(c5ccc([C@@H]6c7ccc(O)cc7CC[C@@H]6c6ccccc6)cc5)CC4)CC3)cc1)=N[C@@H](C)c1nnc(C)n1-2` [III-118], the GI50 was 500 to 2500 nM in assay [1], 50 to 500 nM in assay [2] and less than 50 nM in assay [3].

Regarding `Cc1sc2c(c1C)C(c1ccc(N3CCC(C(=O)N4CCN(c5ccc([C@@H]6c7ccc(O)cc7CC[C@@H]6c6ccccc6)cc5)CC4)CC3)cc1)=N[C@@H](C)c1nnc(C)n1-2` [III-119], the GI50 lay within 500 to 2500 nM in assay [1], 50 to 500 nM in assay [2] and 50 to 500 nM in assay [3].

Turning to `Cc1sc2c(c1C)C(c1ccc(N3CCC4(CCN(c5ccc([C@@H]6c7ccc(O)cc7CC[C@@H]6c6ccccc6)cc5)CC4)C3)cc1)=N[C@@H](C)c1nnc(C)n1-2` [III-120], the results for the GI50 in assay [1], in assay [2] and in assay [3] were 500 to 2500 nM, 50 to 500 nM and greater than 2500 nM, respectively.

Turning to `COC1(CN2CCN(c3ccc([C@@H]4c5ccc(O)cc5CC[C@@H]4c4ccccc4)cc3)CC2)CCN(c2ccc(C3=N[C@@H](C)c4nnc(C)n4-c4sc(C)c(C)c43)cc2)CC1` [III-121], the figures for the concentration for 50% growth inhibition (GI50) in assay [1], in assay [2] and in assay [3] were greater than 2500 nM, 500 to 2500 nM and 500 to 2500 nM, respectively.

Turning to `Cc1sc2c(c1C)C(c1ccc(N3CCN(CC4CCN(c5ncc([C@H]6c7ccc(O)cc7CC[C@H]6c6ccccc6)cn5)CC4)CC3)cc1)=N[C@@H](C)c1nnc(C)n1-2` [III-122], the GI50 is greater than 2500 nM in assay [1], 500 to 2500 nM in assay [2] and 500 to 2500 nM in assay [3].

On to `Cc1sc2c(c1C)C(c1ccc(N3CCN(CC4CCN(c5ncc([C@@H]6c7ccc(O)cc7CC[C@@H]6c6ccccc6)cn5)CC4)CC3)cc1)=N[C@@H](C)c1nnc(C)n1-2` [III-123], for which the GI50 in assay [1] was 500 to 2500 nM; in assay [2], 50 to 500 nM; in assay [3], less than 50 nM.

Turning to `Cc1sc2c(c1C)C(c1ccc(N3CC(N4CCN(Cc5ccc([C@@H]6c7ccc(O)cc7CC[C@@H]6c6ccccc6)cc5)CC4)C3)cc1)=N[C@@H](Cc1ncco1)c1nnc(C)n1-2` [III-124], the values for the GI50 in assay [1], in assay [2] and in assay [3] were 500 to 2500 nM, 50 to 500 nM and 50 to 500 nM, respectively.

As for `Cc1sc2c(c1C)C(c1ccc(N3CCC(CN4CCN(c5ccc([C@H]6c7ccc(O)cc7CC[C@H]6c6ccccc6)cn5)CC4)CC3)cc1)=N[C@@H](Cc1ncco1)c1nnc(C)n1-2` [III-125], the results for the 50% growth inhibitory concentration (GI50) in assay [1], in assay [2] and in assay [3] were 50 to 500 nM, 50 to 500 nM and less than 50 nM, respectively.

Turning to `Cc1sc2c(c1C)C(c1ccc(N3CCC(CN4CCN(c5ccc([C@@H]6c7ccc(O)cc7CC[C@@H]6c6ccccc6)cn5)CC4)CC3)cc1)=N[C@@H](Cc1ncco1)c1nnc(C)n1-2` [III-126], the GI50 in assay [1] was 50 to 500 nM; in assay [2], 50 to 500 nM; in assay [3] it was less than 50 nM.

For `Cc1sc2c(c1C)C(c1ccc(N3CCN(CC4CCN(c5ncc([C@H]6c7ccc(O)cc7CC[C@H]6c6ccccc6)cn5)CC4)CC3)cc1)=N[C@@H](Cc1ncco1)c1nnc(C)n1-2` [III-127], the GI50 in assay [1] is 500 to 2500 nM; in assay [2], 50 to 500 nM; in assay [3], 50 to 500 nM.

Consider `Cc1sc2c(c1C)C(c1ccc(N3CCN(CC4CCN(c5ncc([C@@H]6c7ccc(O)cc7CC[C@@H]6c6ccccc6)cn5)CC4)CC3)cc1)=N[C@@H](Cc1ncco1)c1nnc(C)n1-2` [III-128], for which the GI50 is 50 to 500 nM in assay [1], 50 to 500 nM in assay [2] and less than 50 nM in assay [3].

In the case of `Cc1sc2c(c1C)C(c1ccc(N3CCC4(CCN(Cc5ccc([C@@H]6c7ccc(O)cc7CC[C@@H]6c6ccccc6)cc5)CC4)CC3)cc1)=N[C@@H](C)c1nnc(C)n1-2` [III-129], the GI50 fell in the range of 500 to 2500 nM in assay [1], 50 to 500 nM in assay [2] and 50 to 500 nM in assay [3].

In the case of `COC1(CN2CCC(c3ccc([C@@H]4c5ccc(O)cc5CC[C@@H]4c4ccccc4)cc3)CC2)CCN(c2ccc(C3=N[C@@H](C)c4nnc(C)n4-c4sc(C)c(C)c43)cc2)CC1` [III-130], the results for the GI50 in assay [1], in assay [2] and in assay [3] were 500 to 2500 nM, 50 to 500 nM and 50 to 500 nM, respectively.

By GI50 is commonly meant the concentration giving 50% growth inhibition.
